Values of other authors as cited in patent EP0276807A2, “Lipid regulating compositions” (WARNER-LAMBERT COMPANY, priority 1987, dated 1988).

Biological target: T1, HMG-CoA reductase (Homo sapiens, UniProt P04035)
T1 sequence (P04035 1-888): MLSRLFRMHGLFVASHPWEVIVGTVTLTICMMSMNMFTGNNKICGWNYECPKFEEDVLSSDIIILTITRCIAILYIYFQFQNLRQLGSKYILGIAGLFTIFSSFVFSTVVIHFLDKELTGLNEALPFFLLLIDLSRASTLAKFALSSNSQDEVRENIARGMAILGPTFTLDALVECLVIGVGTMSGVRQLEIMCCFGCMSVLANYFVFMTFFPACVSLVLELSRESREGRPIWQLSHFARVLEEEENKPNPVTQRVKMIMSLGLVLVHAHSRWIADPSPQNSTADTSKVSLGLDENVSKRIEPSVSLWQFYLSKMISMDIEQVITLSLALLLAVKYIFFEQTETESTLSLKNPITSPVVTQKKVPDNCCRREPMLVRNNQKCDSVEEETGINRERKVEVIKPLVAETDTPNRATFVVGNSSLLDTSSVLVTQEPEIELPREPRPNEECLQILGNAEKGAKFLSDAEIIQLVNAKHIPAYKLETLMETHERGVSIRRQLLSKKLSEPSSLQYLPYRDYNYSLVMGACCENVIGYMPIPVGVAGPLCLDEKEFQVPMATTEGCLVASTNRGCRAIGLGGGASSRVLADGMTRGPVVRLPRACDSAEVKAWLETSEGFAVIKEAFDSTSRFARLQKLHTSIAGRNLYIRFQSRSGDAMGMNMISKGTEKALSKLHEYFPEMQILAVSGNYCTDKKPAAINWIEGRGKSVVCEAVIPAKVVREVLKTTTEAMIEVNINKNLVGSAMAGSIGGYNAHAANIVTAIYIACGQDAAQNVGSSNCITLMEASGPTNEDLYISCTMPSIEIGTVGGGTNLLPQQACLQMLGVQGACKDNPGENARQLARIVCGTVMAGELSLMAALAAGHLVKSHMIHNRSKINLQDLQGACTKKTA
Conditions: read-out: IC₅₀ value for inhibition of HMG-CoA reductase

CCC(C)C(=O)OC1CC(C)C=C2C=CC(C)C(CCC(O)CC(O)CC(=O)O)C21 (stereo not drawn) [Mevinolinic acid, [1S-[1α(βS*,δS*),2α,6β,8β(R*)8aα]]-1,2,6,7,8,8a-hexahydro-β,δ-dihydroxy-2,6-dimethyl-8-(2-methyl-1-oxobutoxy)-1-naphthaleneheptanoic acid]
IC50: ~5.6 nM
